The record followed here is ChEMBL document CHEMBL1201862, “PubChem BioAssay data set” (2004).

The source made the active and inactive calls. Some results are limits rather than exact numbers.

The nature of assay [1]: cells. Format: functional.
The target of assay [2] is T1, Estrogen receptor (Homo sapiens, UniProt P03372).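 Note: potency for inhibiting coactivator peptide recruitment to the receptor.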
T1 sequence (P03372 whole entry): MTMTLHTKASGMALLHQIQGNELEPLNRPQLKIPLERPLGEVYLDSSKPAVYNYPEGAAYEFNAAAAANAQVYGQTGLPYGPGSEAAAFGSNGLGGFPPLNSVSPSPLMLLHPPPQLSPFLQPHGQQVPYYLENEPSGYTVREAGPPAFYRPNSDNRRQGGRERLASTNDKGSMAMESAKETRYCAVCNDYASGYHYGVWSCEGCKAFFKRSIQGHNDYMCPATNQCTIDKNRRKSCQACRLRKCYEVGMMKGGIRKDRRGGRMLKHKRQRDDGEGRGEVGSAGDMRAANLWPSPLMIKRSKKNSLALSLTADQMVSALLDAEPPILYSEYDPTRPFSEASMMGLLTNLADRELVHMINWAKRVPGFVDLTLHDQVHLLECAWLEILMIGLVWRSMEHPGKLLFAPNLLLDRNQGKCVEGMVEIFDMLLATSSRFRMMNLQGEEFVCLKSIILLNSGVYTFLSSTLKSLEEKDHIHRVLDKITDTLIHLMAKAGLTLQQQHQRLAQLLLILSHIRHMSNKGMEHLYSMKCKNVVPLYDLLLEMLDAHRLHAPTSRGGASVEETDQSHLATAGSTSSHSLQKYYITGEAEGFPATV

Assay [3] addresses Induced myeloid leukemia cell differentiation protein Mcl-1 (Homo sapiens, UniProt Q07820). It counts as functional.
Assay [4] addresses T2, Leucine aminopeptidase (Plasmodium falciparum 3D7, UniProt Q8IL11).
T2 sequence (Q8IL11 whole entry): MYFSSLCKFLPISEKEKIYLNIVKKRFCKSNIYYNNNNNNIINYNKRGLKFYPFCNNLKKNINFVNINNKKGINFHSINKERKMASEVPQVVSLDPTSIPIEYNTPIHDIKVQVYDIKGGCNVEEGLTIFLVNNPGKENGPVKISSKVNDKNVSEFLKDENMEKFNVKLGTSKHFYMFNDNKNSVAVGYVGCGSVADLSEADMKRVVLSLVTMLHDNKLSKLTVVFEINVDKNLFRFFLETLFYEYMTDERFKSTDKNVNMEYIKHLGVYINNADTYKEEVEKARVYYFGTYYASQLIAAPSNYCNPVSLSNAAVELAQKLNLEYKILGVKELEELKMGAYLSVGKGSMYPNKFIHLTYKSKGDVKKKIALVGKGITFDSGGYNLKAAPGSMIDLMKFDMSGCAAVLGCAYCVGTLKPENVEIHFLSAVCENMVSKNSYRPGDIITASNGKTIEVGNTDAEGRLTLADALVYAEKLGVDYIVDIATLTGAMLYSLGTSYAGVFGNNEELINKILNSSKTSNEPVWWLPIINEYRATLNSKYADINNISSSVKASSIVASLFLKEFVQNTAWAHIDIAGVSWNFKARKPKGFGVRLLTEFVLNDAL
In words: P. falciparum M17LAP inhibitors, primary screen, biochemical, fluorogenic H-Leu-NHMec substrate, 1536-well (AID 1619). It counts as functional.

Assay [5] is described as follows: Luminescence Cell-Based Dose Confirmation HTS to Identify Inhibitors of Platelet Dense Granule Release. [Related pubchem assays: 1663 (Primary HTS), 1678 (Summary of Project)]. Format: functional.
In assay [6] the target is Luciferin 4-monooxygenase (Photinus pyralis, UniProt P08659). In words: inhibition of purified Photinus pyralis luciferase – biochemical, luminescence, dose response (AID 1891).
Chain of Luciferin 4-monooxygenase (P08659 whole entry): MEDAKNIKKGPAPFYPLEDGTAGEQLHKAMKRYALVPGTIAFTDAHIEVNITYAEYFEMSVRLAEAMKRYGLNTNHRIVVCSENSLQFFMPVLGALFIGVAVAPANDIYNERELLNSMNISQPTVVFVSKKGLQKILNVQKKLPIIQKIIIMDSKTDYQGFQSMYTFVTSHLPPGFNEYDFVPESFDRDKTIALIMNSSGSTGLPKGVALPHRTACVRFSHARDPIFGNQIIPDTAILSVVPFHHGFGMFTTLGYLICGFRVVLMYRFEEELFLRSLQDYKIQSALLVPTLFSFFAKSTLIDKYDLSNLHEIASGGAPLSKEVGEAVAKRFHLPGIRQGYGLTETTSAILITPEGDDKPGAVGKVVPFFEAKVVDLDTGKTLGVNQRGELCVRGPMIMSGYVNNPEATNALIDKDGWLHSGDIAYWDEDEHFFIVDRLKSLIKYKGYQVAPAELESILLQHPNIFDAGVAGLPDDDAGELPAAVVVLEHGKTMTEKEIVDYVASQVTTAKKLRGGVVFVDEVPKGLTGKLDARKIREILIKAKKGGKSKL
Assay [7] is described as follows: HEK-293T cell viability reduction – luminescence, B-cell screen hits, cytotoxicity control for BCR NF-kB inhibitor project, dose response (AID 489021).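 Note: HEK-293T cells carrying an NF-kB luciferase reporter; cells exposed to compound for about 14 hours before viability readout.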 Format: functional, cell-based.
Assay [8] can be described thus: alpha-synuclein stem-loop luciferase translation blockers – H4 neuroglioma cells, luminescence, confirmation (AID 1988). It counts as functional, cell-based.
Assay [9] is described as follows: Luminescence Cell-Based Dose Response HTS to Identify Inhibitors of 5'UTR Stem-Loop Driven Prion Protein mRNA Translation in H4 Neuroglioblastoma Cells. [Related pubchem assays: 1827 (Project Summary), 1813 (Primary HTS)]. Format: functional.
Assay [10] can be described thus: luciferase reporter signal suppression in cells – H4 neuroglioma cells, luminescence, dose response (AID 1990). Format: functional, cell-based. On the technique in general: Reporter assays use an easily measured gene product as a stand-in for the process of interest.
The target in assay [11] is T3, Coagulation factor XII (Homo sapiens, UniProt P00748).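 Note: activated factor XIIa alpha cleaving a fluorogenic AMC peptide substrate; inhibitor potency from loss of enzyme activity.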
T3 sequence (P00748 whole entry): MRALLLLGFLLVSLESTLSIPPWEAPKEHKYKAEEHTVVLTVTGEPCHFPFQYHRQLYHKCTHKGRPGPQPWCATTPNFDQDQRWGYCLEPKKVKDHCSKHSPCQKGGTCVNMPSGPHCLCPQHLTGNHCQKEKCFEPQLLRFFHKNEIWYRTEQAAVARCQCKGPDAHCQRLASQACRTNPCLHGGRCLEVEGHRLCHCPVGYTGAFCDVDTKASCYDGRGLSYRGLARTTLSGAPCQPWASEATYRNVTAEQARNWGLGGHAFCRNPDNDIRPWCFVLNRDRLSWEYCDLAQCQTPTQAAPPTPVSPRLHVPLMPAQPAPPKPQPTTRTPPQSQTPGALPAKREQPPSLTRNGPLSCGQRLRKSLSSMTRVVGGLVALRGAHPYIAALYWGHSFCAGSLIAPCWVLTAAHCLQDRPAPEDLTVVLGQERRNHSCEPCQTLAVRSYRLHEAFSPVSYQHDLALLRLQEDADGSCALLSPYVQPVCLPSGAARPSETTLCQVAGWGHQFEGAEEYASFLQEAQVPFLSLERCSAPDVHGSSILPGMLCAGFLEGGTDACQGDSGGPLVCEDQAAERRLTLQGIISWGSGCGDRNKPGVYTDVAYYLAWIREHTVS
It counts as functional.

The target in assay [12] is T4, Microphthalmia-associated transcription factor (Homo sapiens, UniProt O75030).
T4 sequence (O75030 whole entry): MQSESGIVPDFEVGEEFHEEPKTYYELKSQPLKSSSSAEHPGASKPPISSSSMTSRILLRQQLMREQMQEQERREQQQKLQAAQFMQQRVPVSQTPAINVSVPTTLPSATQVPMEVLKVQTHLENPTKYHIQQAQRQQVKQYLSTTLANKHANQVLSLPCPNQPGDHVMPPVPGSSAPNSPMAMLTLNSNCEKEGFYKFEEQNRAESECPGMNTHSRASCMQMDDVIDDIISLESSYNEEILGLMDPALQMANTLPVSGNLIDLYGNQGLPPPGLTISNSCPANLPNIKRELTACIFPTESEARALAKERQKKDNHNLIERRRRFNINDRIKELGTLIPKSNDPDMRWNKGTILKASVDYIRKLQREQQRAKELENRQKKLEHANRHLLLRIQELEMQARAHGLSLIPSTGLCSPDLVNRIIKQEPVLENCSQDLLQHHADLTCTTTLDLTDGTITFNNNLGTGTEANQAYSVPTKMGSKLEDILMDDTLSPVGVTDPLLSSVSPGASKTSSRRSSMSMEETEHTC
Put plainly: reducers of TRPM1 reporter luminescence, concentration series – cell-based, SK-MEL-5, cherry-picked, set 3, MITF inhibitor project, dose response (AID 493073).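 Note: SK-MEL-5 melanoma cells with luciferase driven by the MITF target TRPM1 promoter.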 It counts as functional.

Assay [13] addresses T5, Cytochrome P450 1A2 (Homo sapiens, UniProt P05177).
T5 sequence (P05177 whole entry): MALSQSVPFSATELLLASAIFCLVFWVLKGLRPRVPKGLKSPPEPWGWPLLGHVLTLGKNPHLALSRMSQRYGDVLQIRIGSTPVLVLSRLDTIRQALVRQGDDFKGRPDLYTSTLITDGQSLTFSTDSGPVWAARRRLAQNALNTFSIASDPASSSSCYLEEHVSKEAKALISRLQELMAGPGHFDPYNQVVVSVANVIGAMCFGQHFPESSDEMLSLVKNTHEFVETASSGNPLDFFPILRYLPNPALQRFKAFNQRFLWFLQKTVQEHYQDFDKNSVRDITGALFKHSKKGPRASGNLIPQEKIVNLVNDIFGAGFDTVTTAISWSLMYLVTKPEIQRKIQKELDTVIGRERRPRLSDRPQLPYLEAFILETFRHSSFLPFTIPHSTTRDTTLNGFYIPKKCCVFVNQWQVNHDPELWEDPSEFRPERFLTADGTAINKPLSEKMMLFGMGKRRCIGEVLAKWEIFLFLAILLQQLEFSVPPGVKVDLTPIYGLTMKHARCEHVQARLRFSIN

Assay [14] addresses Cytochrome P450 2C9 (Homo sapiens, UniProt P11712).

Chain of Induced myeloid leukemia cell differentiation protein Mcl-1 (Q07820 whole entry): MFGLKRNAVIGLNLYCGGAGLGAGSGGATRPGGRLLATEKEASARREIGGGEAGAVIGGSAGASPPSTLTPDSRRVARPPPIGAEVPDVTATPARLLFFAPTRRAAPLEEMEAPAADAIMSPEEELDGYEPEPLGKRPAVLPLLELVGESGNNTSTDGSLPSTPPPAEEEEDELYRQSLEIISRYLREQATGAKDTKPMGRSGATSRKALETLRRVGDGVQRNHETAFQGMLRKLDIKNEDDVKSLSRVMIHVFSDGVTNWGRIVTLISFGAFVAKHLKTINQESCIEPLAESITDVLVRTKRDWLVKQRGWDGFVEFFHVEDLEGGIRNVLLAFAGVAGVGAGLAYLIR
Chain of Cytochrome P450 2C9 (P11712 whole entry): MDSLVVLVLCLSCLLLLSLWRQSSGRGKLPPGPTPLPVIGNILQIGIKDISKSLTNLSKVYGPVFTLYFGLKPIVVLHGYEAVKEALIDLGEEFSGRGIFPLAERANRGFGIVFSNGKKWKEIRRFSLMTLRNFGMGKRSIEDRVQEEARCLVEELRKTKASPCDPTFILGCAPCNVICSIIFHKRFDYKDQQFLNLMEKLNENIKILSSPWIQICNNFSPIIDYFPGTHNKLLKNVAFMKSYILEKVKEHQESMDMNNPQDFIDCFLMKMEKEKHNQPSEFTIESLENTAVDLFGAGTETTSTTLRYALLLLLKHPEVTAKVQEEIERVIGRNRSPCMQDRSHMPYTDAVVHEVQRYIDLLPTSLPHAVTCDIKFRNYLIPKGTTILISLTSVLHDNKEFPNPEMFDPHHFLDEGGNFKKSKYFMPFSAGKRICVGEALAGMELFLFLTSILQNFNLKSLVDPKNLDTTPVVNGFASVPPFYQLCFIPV

A word on the IC50: it is the concentration that inhibits the measured activity by half. With `NC(=S)n1[nH]c(-c2ccc([N+](=O)[O-])cc2)c(/N=N/c2ccc(O)cc2)c1=O`, the IC50 in assay [1] is 49.6 µM (active); in [2], 11 µM (active); in assay [3], 3.47 µM (active). Consider `CCOc1c(Br)cc(CNc2nc[nH]n2)cc1OC`, for which, in [4], the half-maximal inhibitory concentration (IC50) is 22.7 µM (active).

What is called EC50 is the concentration that produces a half-maximal response. For the molecule `Cc1ccc2sc(NC(=O)C3CC3)nc2c1C`, the EC50 in assay [5] and in assay [6] was > 112 µM (not active) each time. For `COc1ccc(S(=O)(=O)NCC(c2cccnc2)N2CCN(C)CC2)cc1C` (centres undefined), the EC50 in assay [5] and in assay [6] was > 112 µM (not active) each time. For `CCOC(=O)C1CCN(c2ncnc3c2cnn3-c2ccc(OC)cc2)CC1`, the IC50 in assay [7] is > 80 µM (inactive). As for `Cc1nc2cc(-c3ccccc3)nn2c(C)c1CCC(=O)N1CCC2(CC1)OCCO2`, in assay [7], the IC50 was > 80 µM (inactive). The EC50 in [8] is 0.259 µM (active); in assay [9], 14.6 µM (active); in assay [10], < 0.1 µM (active).

For `COc1cccc(C(c2sc3nc(C)nn3c2O)N2CCN(c3ccccc3F)CC2)c1` (centres undefined), the 50% effective concentration (EC50) in [5] and in [6] was > 112 µM (not active) throughout.

As to `Cc1ccc(-n2nc(C)cc2NC(=O)COc2cc(C)cc3oc(=O)c4c(c23)CCC4)cc1`, the IC50 in assay [3] is < 0.4 µM (not active). Take `O=C(CSc1nc2ccccc2s1)NC1CCCC1`: the IC50 in assay [11] was > 50 µM (inactive). In general, AC50 refers to the concentration giving half of the maximal activity seen. As to `O=C(CCl)N1CCN(S(=O)(=O)c2ccc3c(c2)CCC3)CC1`, the IC50 in assay [7] is > 80 µM (inactive). Besides, the AC50 in assay [12] is 20.7 µM (active).

In the case of `Cc1ccc(-c2c(C#N)c(N)n(-c3ccccc3)c(=O)c2C#N)cc1`, the EC50 in assay [5] is 3.25 µM (active); in assay [6] it was > 112 µM (not active). The AC50 in assay [13] was 11.2 µM (inconclusive); in [14] it was 7.94 µM (inconclusive).

As for `CCOC(=O)c1c(-c2ccc(C)o2)csc1N`, the EC50 in assay [5] and in assay [6] was > 112 µM (not active) in each case. On to `O=C1NC(=O)N(Cc2ccccc2)C(=O)/C1=C\c1ccco1`, for which the IC50 in assay [4] is 62.3 µM (active). For the molecule `Cc1ccc(-c2nn3c(C)nnc3c3ccccc23)cc1S(=O)(=O)NC(C)(C)CO`, the IC50 in assay [7] was > 80 µM (inactive). For the molecule `O=C1NC(=O)N(Cc2ccco2)C(=O)/C1=C/NC1CC1`, the EC50 in assay [5] and in [6] was > 112 µM (not active) throughout. `O=C1CN(Cc2ccccc2)/C(=N\Cc2ccco2)S1`: in [11], the IC50 is > 50 µM (inactive). Consider `O=C(c1cccnc1)C1CCCN(Cc2nc(-c3cnccn3)no2)C1` (centres undefined), for which, in assay [11], the IC50 is > 50 µM (inactive).

In the case of `COc1ccc(-c2ccc(C)cc2)cc1[C@H]1[C@H]2C=CC[C@@H](C)[C@@H]2C(=O)N1Cc1ccccc1`, the IC50 in [7] was > 80 µM (inactive).

For the molecule `CC(C)(C)SCCNS(=O)(=O)c1ccccc1`, the IC50 in assay [11] was > 50 µM (inactive). Consider `N[C@@H](Cc1cc(I)c(Oc2ccc(O)c(I)c2)c(I)c1)C(=O)O` [LIOTHYRONINE SODIUM], for which the IC50 in assay [3] is 14.7 µM (active).
